One test deals with LCLC-103H cell line. As to the kind of experiment: Cytotoxicity against human LCLC-103H cell line measured after 8 days. The class given is functional, cell-based. The note with it: 192 h.
For the next test, the system named is ABC-1. As to the kind of experiment: Cytotoxicity against human ABC-1 cells measured after 8 days. The class given is functional, cell-based. The note with it: ABC-1, 192 h.
Test [1] can be described thus: Cytotoxicity against human GP2d cells measured after 8 days. The test is classed as functional, cell-based. The note with it: 192 h.
The next test has as its system HCC38. As to the kind of experiment: Cytotoxicity against human HCC38 cells measured after 8 days. The note with it: HCC38, 192 h. The test is classed as functional, cell-based.
The nature of test [2]: Cytotoxicity against human MDST8 cells measured after 8 days. The test is classed as functional, cell-based. The note with it: MDST8, 192 h.
Test [3] deals with Dual specificity protein kinase CLK2 (Homo sapiens) (UniProt P49760). The test can be described thus: Inhibition of CLK2 (unknown origin) at 1 uM relative to control.
The species entered for the next test is Rattus norvegicus. The test can be described thus: Displacement of [3H]flunitrazepam from rat brain central BZD at 10 uM after 60 mins by radioligand binding assay relative to control. Background: In a radioligand displacement assay an active substance lowers the binding of a labelled ligand.
In the next test the test system is NCI-H520. As to the kind of experiment: Cytotoxicity against human NCI-H520 cells measured after 8 days. The note with it: NCI-H520, 192 h. The class given is functional, cell-based.
In the next test the test system is RERF-LC-MS. As to the kind of experiment: Cytotoxicity against human RERF-LC-MS cells measured after 8 days. The class given is functional, cell-based. The note with it: 192 h.
For test [4], the target named is Adenosine receptor A2a (Homo sapiens) (UniProt P29274). As to the kind of experiment: Displacement of [3H]-CGS 21680 from human recombinant adenosine A2A receptor at 10 uM after 120 mins by scintillation counting analysis relative to control.
The test system of the next test is NCI-H522. As to the kind of experiment: Cytotoxicity against human NCI-H522 cells measured after 8 days. The class given is functional, cell-based. The note with it: NCI-H522, 192 h.
The next test has as its system RL. As to the kind of experiment: Cytotoxicity against human RL cells measured after 8 days. The test is classed as functional, cell-based. The note with it: 192 h.
Another test relates to NCI-H146. The test can be described thus: Cytotoxicity against human NCI-H146 cells measured after 8 days. The test is classed as functional, cell-based. The note with it: NCI-H146, 192 h.
Test [5] addresses T1, ATPase family AAA domain-containing protein 2 (Homo sapiens, UniProt Q6PL18).
T1 sequence (Q6PL18 whole entry): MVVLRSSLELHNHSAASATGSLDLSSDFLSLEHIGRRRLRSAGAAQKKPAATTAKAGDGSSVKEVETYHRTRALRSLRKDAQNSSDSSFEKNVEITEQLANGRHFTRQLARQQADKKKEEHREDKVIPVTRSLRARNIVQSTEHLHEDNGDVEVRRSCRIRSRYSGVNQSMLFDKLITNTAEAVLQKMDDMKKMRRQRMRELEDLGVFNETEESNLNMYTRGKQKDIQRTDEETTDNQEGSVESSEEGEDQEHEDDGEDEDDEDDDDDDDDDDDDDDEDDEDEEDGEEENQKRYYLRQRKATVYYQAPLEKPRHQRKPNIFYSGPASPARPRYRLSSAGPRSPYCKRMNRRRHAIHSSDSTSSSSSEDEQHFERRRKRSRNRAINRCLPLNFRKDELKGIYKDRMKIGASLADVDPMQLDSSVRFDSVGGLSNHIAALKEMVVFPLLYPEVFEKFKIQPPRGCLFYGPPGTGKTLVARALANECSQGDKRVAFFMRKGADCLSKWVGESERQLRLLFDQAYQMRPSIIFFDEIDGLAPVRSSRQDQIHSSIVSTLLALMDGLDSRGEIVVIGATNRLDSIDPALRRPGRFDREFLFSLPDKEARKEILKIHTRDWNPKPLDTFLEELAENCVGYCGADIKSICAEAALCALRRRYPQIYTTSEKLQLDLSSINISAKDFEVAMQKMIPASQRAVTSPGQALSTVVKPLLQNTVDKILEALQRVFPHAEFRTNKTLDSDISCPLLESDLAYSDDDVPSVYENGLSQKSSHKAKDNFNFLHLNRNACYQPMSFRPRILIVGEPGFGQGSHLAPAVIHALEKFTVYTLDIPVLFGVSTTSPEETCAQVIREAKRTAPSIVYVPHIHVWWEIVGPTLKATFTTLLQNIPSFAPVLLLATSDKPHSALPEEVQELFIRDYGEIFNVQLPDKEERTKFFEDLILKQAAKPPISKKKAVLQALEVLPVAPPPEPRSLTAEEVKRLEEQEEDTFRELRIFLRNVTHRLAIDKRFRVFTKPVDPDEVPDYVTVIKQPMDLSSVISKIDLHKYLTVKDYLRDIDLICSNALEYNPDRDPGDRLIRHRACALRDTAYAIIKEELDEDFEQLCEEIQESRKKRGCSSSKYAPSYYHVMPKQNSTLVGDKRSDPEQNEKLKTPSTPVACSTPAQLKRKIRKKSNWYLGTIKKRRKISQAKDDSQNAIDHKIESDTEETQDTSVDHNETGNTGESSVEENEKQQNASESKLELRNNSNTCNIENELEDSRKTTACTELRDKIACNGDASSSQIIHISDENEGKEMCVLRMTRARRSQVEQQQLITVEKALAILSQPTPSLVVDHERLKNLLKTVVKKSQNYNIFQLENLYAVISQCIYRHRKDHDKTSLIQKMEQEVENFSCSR
As to the kind of experiment: Binding affinity to human partial length ATAD2A (Q981 to R1108 residues) expressed in bacterial expression system by BROMOscan assay.

Test [6] deals with 5-hydroxytryptamine receptor 1B (Rattus norvegicus) (UniProt P28564). The test can be described thus: Displacement of [125I]-CYP from rat brain 5-HT1B receptor at 10 uM after 120 mins by scintillation counting analysis relative to control.
Test [7] deals with Bromodomain testis-specific protein (Homo sapiens, UniProt Q58F21). As to the kind of experiment: Binding affinity to human partial length BRDT bromodomain 1 (N21 to E137 residues) expressed in bacterial expression system by BROMOscan assay.
In test [8] the target is Bromodomain-containing protein 8 (Homo sapiens, UniProt Q9H0E9). The test can be described thus: Binding affinity to BRD8 bromodomain 2 (unknown origin) by BROMOscan assay.
The next test concerns NCI-H1437. As to the kind of experiment: Cytotoxicity against human NCI-H1437 cells measured after 8 days. The test is classed as functional, cell-based. The note with it: NCI-H1437, 192 h.
The nature of test [9]: Cytotoxicity against human NCI-H322T cells measured after 8 days. The note with it: 192 h. The test is classed as functional, cell-based.
The next test relates to MDA-MB-436. As to the kind of experiment: Cytotoxicity against human MDA-MB-436 cells measured after 8 days. The class given is functional, cell-based. The note with it: MDA-MB-436, 192 h.
In another test the test system is NCI-H650. As to the kind of experiment: Cytotoxicity against human NCI-H650 cells measured after 8 days. The test is classed as functional, cell-based. The note with it: NCI-H650, 192 h.
In the next test the test system is NCI-H2452. As to the kind of experiment: Cytotoxicity against human NCI-H2452 cells measured after 8 days. The class given is functional, cell-based. The note with it: NCI-H2452, 192 h.
The test system of a further test is HOP-62. As to the kind of experiment: Cytotoxicity against human HOP-62 cells measured after 8 days. The test is classed as functional, cell-based. The note with it: HOP-62, 192 h.
Test [10] is described as follows: Cytotoxicity against human WSU-FSCCL cells measured after 8 days. The class given is functional, cell-based. The note with it: 192 h.
A short description of test [11]: Cytotoxicity against human NCI-H2023 cells measured after 8 days. The class given is functional, cell-based. The note with it: NCI-H2023, 192 h.
Test [12] can be described thus: Cytotoxicity against human SK-MEL-23 cells measured after 8 days. The test is classed as functional, cell-based. The note with it: SK-MEL-23, 192 h.
In the next test the test system is SW948. As to the kind of experiment: Cytotoxicity against human SW948 cells measured after 8 days. The class given is functional, cell-based. The note with it: SW948, 192 h.
Test [13] in a line: Cytotoxicity against human HCC4019 cells measured after 8 days. The test is classed as functional, cell-based. The note with it: HCC4019, 192 h.
The nature of test [14]: Cytotoxicity against human RERF-LC-OK cells measured after 8 days. The test is classed as functional, cell-based. The note with it: 192 h.

Results on four molecules are retold here after ChEMBL document CHEMBL5260810, “Inhibition of bromodomain-containing protein 9 for the prevention of epigenetically-defined drug resistance” (Bioorg Med Chem Lett, 2017).

SMILES strings stand for the structures.

Sequence of Dual specificity protein kinase CLK2 (Homo sapiens) (P49760 whole entry, looked up): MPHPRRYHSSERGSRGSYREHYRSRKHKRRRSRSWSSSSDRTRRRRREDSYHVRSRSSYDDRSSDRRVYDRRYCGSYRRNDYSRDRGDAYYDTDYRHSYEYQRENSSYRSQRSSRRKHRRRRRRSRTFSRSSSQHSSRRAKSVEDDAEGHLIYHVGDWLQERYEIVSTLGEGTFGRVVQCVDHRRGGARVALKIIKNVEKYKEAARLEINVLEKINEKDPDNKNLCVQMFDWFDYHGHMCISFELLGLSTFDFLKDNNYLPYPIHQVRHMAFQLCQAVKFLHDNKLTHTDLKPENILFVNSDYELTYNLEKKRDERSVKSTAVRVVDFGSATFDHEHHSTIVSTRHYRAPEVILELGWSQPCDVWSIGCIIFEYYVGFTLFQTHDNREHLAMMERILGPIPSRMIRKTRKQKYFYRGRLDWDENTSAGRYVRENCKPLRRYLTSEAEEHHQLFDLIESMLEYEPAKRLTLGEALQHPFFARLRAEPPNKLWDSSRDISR
Sequence of Bromodomain-containing protein 8 (Q9H0E9 whole entry): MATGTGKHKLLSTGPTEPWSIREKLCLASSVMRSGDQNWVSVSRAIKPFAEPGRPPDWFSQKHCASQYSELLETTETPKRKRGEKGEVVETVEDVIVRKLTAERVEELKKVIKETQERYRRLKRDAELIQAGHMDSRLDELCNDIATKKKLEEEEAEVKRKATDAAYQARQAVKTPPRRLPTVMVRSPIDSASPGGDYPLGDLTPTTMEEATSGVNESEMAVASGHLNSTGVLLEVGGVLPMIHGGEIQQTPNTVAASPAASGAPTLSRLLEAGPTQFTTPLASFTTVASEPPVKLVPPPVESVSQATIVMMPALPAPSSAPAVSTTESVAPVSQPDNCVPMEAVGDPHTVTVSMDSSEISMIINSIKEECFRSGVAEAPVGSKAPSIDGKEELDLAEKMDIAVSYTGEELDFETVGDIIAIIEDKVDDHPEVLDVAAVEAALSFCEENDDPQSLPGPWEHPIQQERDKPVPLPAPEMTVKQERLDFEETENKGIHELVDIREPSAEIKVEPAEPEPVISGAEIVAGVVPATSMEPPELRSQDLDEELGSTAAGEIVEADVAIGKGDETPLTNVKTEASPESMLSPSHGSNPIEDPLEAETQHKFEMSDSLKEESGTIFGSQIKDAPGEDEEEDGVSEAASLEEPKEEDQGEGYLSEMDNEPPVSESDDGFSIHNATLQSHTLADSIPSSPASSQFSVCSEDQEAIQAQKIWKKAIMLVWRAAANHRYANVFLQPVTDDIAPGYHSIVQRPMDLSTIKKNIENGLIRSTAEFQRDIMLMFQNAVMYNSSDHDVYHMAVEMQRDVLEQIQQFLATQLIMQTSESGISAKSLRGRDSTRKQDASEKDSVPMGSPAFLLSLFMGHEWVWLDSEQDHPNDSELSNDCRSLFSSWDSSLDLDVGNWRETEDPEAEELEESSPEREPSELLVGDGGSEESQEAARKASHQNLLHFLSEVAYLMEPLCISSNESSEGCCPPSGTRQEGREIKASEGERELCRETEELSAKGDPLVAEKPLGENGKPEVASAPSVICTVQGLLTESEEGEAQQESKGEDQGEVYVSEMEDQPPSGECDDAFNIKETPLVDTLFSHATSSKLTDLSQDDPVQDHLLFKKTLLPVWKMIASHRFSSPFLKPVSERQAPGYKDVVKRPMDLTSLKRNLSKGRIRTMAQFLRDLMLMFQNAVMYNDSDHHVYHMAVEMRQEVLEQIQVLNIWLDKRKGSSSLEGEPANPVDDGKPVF
Sequence of 5-hydroxytryptamine receptor 1B (Rattus norvegicus) (P28564 whole entry, the tested form may be a part): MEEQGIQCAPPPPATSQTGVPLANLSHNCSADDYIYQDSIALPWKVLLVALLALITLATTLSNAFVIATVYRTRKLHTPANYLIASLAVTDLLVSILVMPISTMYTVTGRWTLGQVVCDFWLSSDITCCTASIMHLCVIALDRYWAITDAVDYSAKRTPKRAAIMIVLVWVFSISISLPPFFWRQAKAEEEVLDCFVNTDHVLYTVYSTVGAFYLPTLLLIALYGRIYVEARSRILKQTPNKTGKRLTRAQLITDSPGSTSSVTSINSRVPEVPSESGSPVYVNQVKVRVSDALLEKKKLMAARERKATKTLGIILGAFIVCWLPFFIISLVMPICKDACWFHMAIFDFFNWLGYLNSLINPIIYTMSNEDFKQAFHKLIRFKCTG
Sequence of Adenosine receptor A2a (Homo sapiens) (P29274 whole entry): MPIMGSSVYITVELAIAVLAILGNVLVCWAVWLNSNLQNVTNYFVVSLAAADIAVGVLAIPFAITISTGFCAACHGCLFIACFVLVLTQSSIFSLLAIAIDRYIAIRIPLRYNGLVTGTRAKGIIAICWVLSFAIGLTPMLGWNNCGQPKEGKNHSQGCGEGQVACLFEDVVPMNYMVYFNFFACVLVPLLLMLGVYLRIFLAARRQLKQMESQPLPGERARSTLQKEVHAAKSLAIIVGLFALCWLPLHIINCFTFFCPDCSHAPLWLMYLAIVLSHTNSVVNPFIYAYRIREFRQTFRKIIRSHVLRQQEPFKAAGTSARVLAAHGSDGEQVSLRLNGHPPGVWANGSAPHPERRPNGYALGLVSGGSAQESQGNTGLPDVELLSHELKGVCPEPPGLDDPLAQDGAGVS

Broadly, the IC50 is the concentration needed to halve the response being measured. A lower IC50 goes with greater potency in that assay. One may read the inhibition as the share of the control response that was lost under treatment. What is called Kd is the free concentration of one partner at which half of the binding sites on the other are occupied at equilibrium, for simple one-to-one binding. Consider `C/C=C/Cn1cc(-c2ccc(C(C)(C)O)cc2OC)c2cc[nH]c2c1=O`, for which the IC50 (with LCLC-103H cell line; in the test with ABC-1; in test [1]; in the test on HCC38; in test [2]; in the test on NCI-H520) was 20 µM in each case. Besides, the IC50 with RERF-LC-MS came to 20 µM; in the test with NCI-H522, 20 µM; in the test with RL, 14.8 µM; in the test on NCI-H146 it was 20 µM; with NCI-H1437 it was 20 µM; in test [9] it was 20 µM. The IC50 with MDA-MB-436 turned out to be 20 µM; in the test with NCI-H650 it was 20 µM; with NCI-H2452, 20 µM; in the test on HOP-62, 20 µM; in test [10], 13.5 µM; in [11], 20 µM. Besides, the half-maximal inhibitory concentration (IC50) (in [12]; with SW948; in [13]; in test [14]) was 20 µM throughout. In test [3], this molecule registered an inhibition of 8%. The figures for the Activity (in the test filed under Rattus norvegicus; in test [4]; in test [6]) were -21%, 8% and -15%, respectively. The Kd in [5] was more than 10 µM; in [7] it was 0.83 µM; in test [8] it was more than 10 µM.

As for `C/C=C/Cn1cc(-c2ccc(C(=O)N3CCOCC3)cc2)c2cc[nH]c2c1=O`, the IC50 (with LCLC-103H cell line; in the test with ABC-1; in [1]; with HCC38; in test [2]; in the test on NCI-H520) was 20 µM throughout. Moreover, the 50% inhibitory concentration (IC50) with RERF-LC-MS is 20 µM; in the test with NCI-H522, 20 µM; with RL, 16.6 µM; in the test on NCI-H146, 20 µM; with NCI-H1437 it was 20 µM; in [9], 20 µM. Also, the IC50 (in the test with MDA-MB-436; with NCI-H650; in the test with NCI-H2452; in the test on HOP-62; in test [10]; in test [11]) was 20 µM throughout. Further, the half-maximal inhibitory concentration (IC50) (in test [12]; in the test on SW948; in test [13]; in test [14]) was 20 µM each time. Moreover, the inhibition in test [3] worked out at 2%. In addition, the Activity in the test filed under Rattus norvegicus was determined as 13%; in [4] it was 8%; in test [6], 8%. Also, the equilibrium dissociation constant (Kd) in test [5] was more than 10 µM; in [7] it was 2.5 µM; in [8], more than 10 µM.

As to `C/C=C/Cn1cc(-c2cc(OC)c(C(=O)N3CCOCC3)cc2OC)c2cc(C)[nH]c2c1=O`, the IC50 (in the test on LCLC-103H cell line; in the test with ABC-1; in [1]; in the test with HCC38; in [2]; with NCI-H520) was 2 µM each time. The concentration for half-maximal inhibition (IC50) (with RERF-LC-MS; with NCI-H522; in the test with RL; in the test on NCI-H146; in the test with NCI-H1437; in [9]) was 2 µM throughout. The half-inhibitory concentration (IC50) in the test on MDA-MB-436 worked out at 2 µM; in the test with NCI-H650, 2 µM; in the test with NCI-H2452, 2 µM; with HOP-62, 2 µM; in [10] it was 0.81 µM; in [11], 2 µM. In addition, the concentration for half-maximal inhibition (IC50) (in [12]; with SW948; in test [13]; in [14]) was 2 µM in each case. Also, the inhibition in test [3] turned out to be 7.5%. For the same molecule, the Activity in the test filed under Rattus norvegicus was 86%; in test [4] it was 12%; in test [6], -10%. Also, the equilibrium dissociation constant (Kd) in test [5], in [7] and in [8] was more than 10 µM in each case.

`C/C=C/Cn1cc(-c2cc(OC)c(C(C)(C)O)cc2OC)c2cc(C)[nH]c2c1=O`: the dissociation constant (Kd) in [5] was 9.3 µM; in [7], 2.1 µM; in [8] it was more than 10 µM.
